Publication PMC6053448, “Small molecule activator of Nm23/NDPK as an inhibitor of metastasis” (Scientific Reports, 2018)

Assays:
[1] = target: T1, recombinant human Nm23-H1 (NDPK-A) (Homo sapiens, UniProt P15531); assay: NDPK assay, activation; format: biochemical; settings: number only in supplement
T1 construct: gene NME1; pET-3c, E. coli BL21(DE3), no tag mentioned; ATP-sepharose purification

[2] = target: T1, recombinant human Nm23-H1 (NDPK-A); assay: NDPK assay, double reciprocal plot; format: biochemical; settings: 5 µM ATP, without NMac1

T1 sequence (P15531 whole entry): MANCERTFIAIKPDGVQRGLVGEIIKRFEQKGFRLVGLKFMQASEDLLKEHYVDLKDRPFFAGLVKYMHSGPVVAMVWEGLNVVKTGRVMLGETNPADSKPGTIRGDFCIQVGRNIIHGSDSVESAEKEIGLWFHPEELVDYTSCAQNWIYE

| SMILES | % activation [1] | Km [2] |
| --- | --- | --- |
| COc1ccc(/C=C/[C@H]2CCC=C[C@@H]2c2ccc(OC)c(OC)c2)cc1OC [NMac3, 3S-(3,4-dimethoxyphenyl)-4R-[(E)-3,4-dimethoxystyryl]cyclohex-1-ene] | The chirality of the molecule did not affect the activation of Nm23-H1 |  |
| O=c1ccn([C@@H]2O[C@H](COP(=O)(O)OP(=O)(O)O)[C@@H](O)[C@H]2O)c(=O)[nH]1 [UDP] |  | NMac1 decreased the Km value of Nm23-H1 for substrate UDP without affecting Vmax |
